This note sets out measurements from patent US20110144064A1, “Inhibitors of Kynurenine Aminotransferase and Uses Therefor” (priority 2005, published 2011).

This experiment has as its target T1, rat liver partially purified KAT II (Rattus norvegicus, UniProt Q64602).
T1 construct: rat liver partially purified KAT II; from tissue; host or cells: rat liver
Nature of the experiment: Inhibition of kynurenine aminotransferase II activity ([3H]-kynurenine to [3H]-kynurenic acid). The format is biochemical. On the procedure:
Compounds were tested as inhibitors of kynurenine aminotransferase II and the IC50 values determined. For the determination of the KAT II activity, 80 μl of rat liver partially purified KAT II was incubated (2 hrs at 37° C. with 100 μl of 150 mM Tris-acetate (pH 7.4), 2 μM kynurenine, (2.5 nCi) [^3H]-kynurenine 1 mM pyruvate and 70 μM pyridoxal-5′-phosphate. Add 20 μl of the inhibitor solution (10×). The reaction was terminated by the addition of 14 μl of 50% trichloroacetic acid and 1 ml of 0.1 N hydrochloric acid. The denaturated protein was removed by centrifugation and 1 ml of the supernatant was applied to a Dowex 50 W H^+ cation exchange column which was then washed with 1 ml of 0.1 N hydrochloric acid followed by 1 ml of ultrapure water. [^3H]-Kynurenic acid formed was subsequently eluted with 2×1 ml of ultrapure water and radioactivity was quantified by liquid scintillation spectrometry.
All compounds are in the racemic form, when applicable, unless indicated otherwise. Other untested compounds are commercially available or easily synthesized using standard synthetic methods. Data are presented as IC50 values in μM for all tested compounds. Blanks are untested compounds.

The mark [1] stands for this setting: rat liver partially purified KAT II, 2 hrs at 37° C., pH 7.4, 2 μM kynurenine, 1 mM pyruvate, read-out: IC50 kynurenine aminotransferase II.
The mark [2] stands for this setting: rat liver partially purified KAT II, 2 hrs at 37° C., pH 7.4, 2 μM kynurenine, 1 mM pyruvate.
Where [3] appears, read: IC50 kynurenine aminotransferase II, rat liver partially purified KAT II, 2 hrs at 37° C., pH 7.4, 2 μM kynurenine, 1 mM pyruvate.

Several values for one entry are separate records, joined by “and”; a condition that tells them apart may be missing. Equal values may be shown once. Read-outs that look alike come from different tables or passages of the source.

T1 sequence (Q64602 30-425): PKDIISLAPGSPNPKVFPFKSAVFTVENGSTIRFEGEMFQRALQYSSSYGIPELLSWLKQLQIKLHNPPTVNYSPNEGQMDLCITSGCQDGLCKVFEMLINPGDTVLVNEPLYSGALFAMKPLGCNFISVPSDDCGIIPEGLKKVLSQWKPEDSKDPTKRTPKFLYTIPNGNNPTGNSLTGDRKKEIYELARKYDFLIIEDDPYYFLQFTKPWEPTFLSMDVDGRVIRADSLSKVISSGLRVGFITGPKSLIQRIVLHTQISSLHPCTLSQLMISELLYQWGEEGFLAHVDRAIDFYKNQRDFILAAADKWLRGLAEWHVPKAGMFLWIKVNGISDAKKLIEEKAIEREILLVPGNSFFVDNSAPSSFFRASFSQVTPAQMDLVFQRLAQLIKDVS

Usually IC50 stands for the concentration at which inhibition is half-maximal. On to `NC(CCCC(=O)O)C(=O)O` (racemic) [n=3, R^1 = NH^2, DL-2-amino-1,6-hexanedioic acid], for which, under setting [1], the IC50 stood at 18 µM. The same measure, in the same setting: the figure for `NC(CCCP(=O)(O)O)C(=O)O` (racemic) [n=3, X = PO3H2 (DL), DL-2-amino-5-phosphonopentanoic acid] is 1000 µM; for `O=C(O)CCCCCCCCC(=O)O` [n=7, R^1 = H, 1,10-decanedioic acid] it is 720 µM; for `O=C(O)CCCCCCCCCCCCCCC(=O)O` [n=13, R^1 = H, 1,16-hexadecanedioic acid] it is 60 µM. Regarding `CC(N)(CCCCCCCCCCCCCC(=O)O)C(=O)O` (racemic) [DL-2-amino-2-methyl-1,16-hexadecanedioic acid], the IC50 under setting [1] came to 53.7 µM. Same read-out and setting: the figure for `O=C(O)CCCCCCCCCCC(=O)O` [n=9, R^1 = H, 1,12-dodecanedioic acid] is 256 µM. `NC(CCCCCCC(=O)O)C(=O)O` (racemic) [n=6, R^1 = NH^2, DL-2-amino-1,9-nonanedioic acid]: the IC50 under setting [1] stood at 355 µM.

Turning to `NC(CC(=O)O)C(=O)O` (racemic) [n=1, R^1 = NH^2, DL-2-amino-1,4-butanedioic acid], the IC50 under setting [1] was 2460 µM. On to `NC(CCCCCCCCCC(=O)O)C(=O)O` (racemic) [n=9, R^1 = NH^2, DL-2-amino-1,12-dodecandioic acid], for which, under setting [1], the IC50 is 8 µM. `O=C(O)CCCCCCC(=O)O` [n=5, R^1 = H]: the “IC50 kynurenine aminotransferase II” value under setting [2] is “inactive”.

Take `O=C(O)CCCCCCCCCCCCCC(=O)O` [n=12, R^1 = H, 1,15-pentadecanedioic acid]: under setting [1], the IC50 amounted to 71 µM.

On to `NC(CS(=O)(=O)O)C(=O)O` (centres unmarked) [n=1, X = SO3H (L), 2-amino-3-sulfopropionic acid], for which the IC50 under setting [1] worked out at 739 µM.

Turning to `NC(CCP(=O)(O)O)C(=O)O` (racemic) [n=2, X = PO3H2 (DL), DL-2-amino-4-phosphonobutyric acid], inhibition under setting [3] was half-maximal at 505 µM (IC50). As to `O=C(O)CCCCCCCCCCCC(=O)O` [n=10, R^1 = H, 1,13-tridecanedioic acid], under setting [1], the IC50 was determined as 170 µM.

For the setting “IC50 kynurenine aminotransferase II”, `NC(CCCCCC(=O)O)C(=O)O` (racemic) [n=5, R^1 = NH^2, DL-2-amino-1,8-octanedioic acid] yielded an IC50 of 272 µM.

As for `O=C(O)CCCCCCCCCCCCCCCO` [n = 13, R1, R2 = H, X = CH2OH, 16-hydroxyhexadecanoic acid], under setting [1], the IC50 was determined as 149 µM. `N[C@@H](CS(=O)O)C(=O)O` [n=1, X = S02H (L), cysteinesulfinic acid]: the IC50 under setting [1] came out at 1150 µM. Still for that read-out and setting: the figure for `NC(CCS(=O)(=O)O)C(=O)O` (centres unmarked) [n=2, X = SO3H (L), 2-amino-4-sulfobutyric acid] is 63 µM; for `O=C(O)CCCCCCCC(=O)O` [n=6, R^1 = H, 1,9-nonanedioic acid] it is 4580 µM. Turning to `O=C(O)CC(=O)O` [n=0, R^1 = H], the “IC50 kynurenine aminotransferase II” value under setting [2] is “inactive”. Take `NC(CCCCCCCCCCCCCCC(=O)O)C(=O)O` (racemic) [n=14, R^1 = NH^2, DL-2-amino-1,17-heptadecanedioic acid]: the IC50 under setting [1] was 85 µM. Same read-out and setting: the figure for `O=C(O)CCCCCC(=O)O` [n=4, R^1 = H, 1,7-heptanedioic acid] is 6370 µM; for `O=C(O)CCCCCCCCCCCCC(=O)O` [n=11, R^1 = H, 1,14-tetradecanedioic acid] it is 102 µM. Compound `NC(CCCCCP(=O)(O)O)C(=O)O` (stereo not drawn) [n=5, X = PO3H2 (DL), 2-amino-7-phosphonoheptanoic acid] gave an IC50 under setting [3] of 1460 µM. Still for that read-out and setting: the figure for `NC(CCC(=O)O)C(=O)O` (racemic) [n=2, R^1 = NH^2, DL-2-amino-1,5-pentanedioic acid] is 2250 µM. Consider `O=C(O)CCC(=O)O` [n=1, R^1 = H], for which, under setting [2], the “IC50 kynurenine aminotransferase II” value is “inactive”. With `N[C@@H](CCS(=O)O)C(=O)O` [n=2, X = S02H (L), homocysteinesulfinic acid], the IC50 under setting [1] worked out at 224 µM.

As to `O=C(O)CCCC(=O)O` [n=2, R^1 = H], under setting [2], the “IC50 kynurenine aminotransferase II” value was “inactive”. As to `NC(CCCCCCCCCCC(=O)O)C(=O)O` (racemic) [n=10, R^1 = NH^2, DL-2-amino-1,13-tridecanedioic acid], the IC50 under setting [1] worked out at 7 µM.

`O=C(O)CCCCC(=O)O` [n=3, R^1 = H, 1,6-hexanedioic acid]: under setting [1], the IC50 came out at 1290 µM. As to `NC(CCCCC(=O)O)C(=O)O` (racemic) [n=4, R^1 = NH^2, DL-2-amino-1,7-heptanedioic acid], the IC50 under setting [1] was 14 µM. Still for that read-out and setting: the figure for `NC(CCCCCCCCCCCCCC(=O)O)C(=O)O` (racemic) [n=13, R^1 = NH^2, DL-2-amino-1,16-hexadecanedioic acid] is 6 µM and 6.4 µM; for `NC(CCCCCCCCC(=O)O)C(=O)O` (racemic) [n=8, R^1 = NH^2, DL-2-amino-1,11-undecanedioic acid] it is 7 µM; for `O=C(O)CCCCCCCCCC(=O)O` [n=8, R^1 = H, 1,11-undecanedioic acid] it is 234 µM. The same measure, in the same setting: the figure for `CNC(CCCCCCCCCCCCCC(=O)O)C(=O)O` (racemic) [DL-2-methylamino-1,16-hexadecanedioic acid] is 29.3 µM.
